Peptide text beside a SMILES is read from it.
Experiments:
[1] = tested on: MMP-2; assay: MMP-2 expression by gelatin zymography in human cardiac fibroblasts; assay type: cell-based; conditions: gelatin zymography and densitometry
[2] = tested on: MMP-2; assay: MMP-2 expression by gelatin zymography in rat renal myofibroblasts; assay type: cell-based; conditions: 16.80 nM, gelatin zymography and densitometry
Procedure: Renal myofibroblast cells natively expressing human RXFP1 were plated out onto 12-well plates with a density of 50 000 cells per well. Cells were treated with 16.8 nM H2-relaxin and 16.80 nM B7-33 C11.23S. Expression of basal MMP-2 levels was monitored with no treatment applied to wells (control). Each treatment was carried out in duplicates (n=5), for each replicate in Dulbecco's modified Eagle's medium (DMEM) containing 10% fetal calf serum, 2.2% HEPES buffer, 1% L-glutamine and 2% penicillin/strepticillin. The cells were incubated over 48 hrs in a humidified chamber with 5% CO2 at 37.8° C. temperature. Following this, media was aspirated off and experiment continued in serum free media (DMEM containing 2.2% HEPES buffer, 1% L-glutamine, 2% penicillin/strepicillin and 2% lactalbumin hydrolysate) for a further 24 hours in a humidified chamber with 5% CO2 at 37.8° C. […]. Media were then collected from various treatments and gel zymography was carried out.
For determination of MMP-2 expression within various treatments, zymographic assays of gelatinases were carried out. […] (0.05M Tris-HCl pH 7.4, 0.01M CaCl2, 5% Triton X-100, 0.02% sodium azide, 1 μM ZnCl2. The gels were then stained with 0.1% Cootnassie blue containing 40% 2-propanol and destained with 7% acetic acid before analysed by ImageJ software.

[3] = biological target: T1, RXFP1 (Homo sapiens, UniProt Q9HBX9); assay: Eu-labelled H2 relaxin competition binding, whole HEK-293T cells stably transfected with RXFP1; conditions: RXFP1-expressing cells, Eu-labelled H2 relaxin; FIG. 2A
T1 construct: expressed in transfected cells; host or cells: HEK-293T
T1 sequence (Q9HBX9 1-757): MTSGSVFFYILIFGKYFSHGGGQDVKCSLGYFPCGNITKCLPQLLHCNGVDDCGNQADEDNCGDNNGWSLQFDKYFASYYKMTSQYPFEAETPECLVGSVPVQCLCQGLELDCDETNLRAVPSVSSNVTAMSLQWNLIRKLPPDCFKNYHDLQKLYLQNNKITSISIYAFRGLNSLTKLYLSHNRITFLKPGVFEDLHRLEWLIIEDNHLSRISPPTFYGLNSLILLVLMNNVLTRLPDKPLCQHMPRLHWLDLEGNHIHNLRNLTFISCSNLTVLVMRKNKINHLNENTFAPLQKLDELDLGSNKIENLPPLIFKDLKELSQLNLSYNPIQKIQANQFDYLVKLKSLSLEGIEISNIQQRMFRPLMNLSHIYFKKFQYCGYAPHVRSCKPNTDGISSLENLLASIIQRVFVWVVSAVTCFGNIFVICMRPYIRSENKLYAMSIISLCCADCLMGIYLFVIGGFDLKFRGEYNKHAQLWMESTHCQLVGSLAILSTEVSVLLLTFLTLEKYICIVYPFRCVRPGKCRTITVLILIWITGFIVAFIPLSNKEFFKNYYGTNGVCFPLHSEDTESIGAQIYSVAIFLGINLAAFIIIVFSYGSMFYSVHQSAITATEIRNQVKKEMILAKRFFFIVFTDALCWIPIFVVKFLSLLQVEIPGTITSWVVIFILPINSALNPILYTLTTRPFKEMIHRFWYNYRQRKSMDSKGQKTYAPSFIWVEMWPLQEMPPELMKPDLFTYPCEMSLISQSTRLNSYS
Procedure: Human embryonic kidney (HEK-293T) cells stably transfected with RXFP1 were cultured in RPMI 1640 medium supplemented with 10% fetal calf serum, 100 μg/ml penicillin, 100 μg/ml streptomycin and 2 mM L-glutamine and plated into 96-well pre-coated with poly-L-lysine for whole cell binding assays. Competition binding experiments were conducted with Eu^3+-labelled H2 relaxin (as per Shabanpoor et al., 2012, Biochem Biophys Res Commun. 420, 253-256) in the absence or presence of increasing concentrations of unlabelled relaxin-2 B chain derivatives. Nonspecific binding was determined with an excess of unlabelled peptides (500 nM H2 relaxin). Fluorescent measurements were recorded at an excitation wavelength of 340 nm and emission of 614 nm on a Victor plate reader (Perkin-Elmer Inc.). […] Statistical differences in pIC50 values were analyzed using one-way analysis of variance coupled to Newman Keul's multiple comparison test for multiple group comparisons in GraphPad Prism 6.

## CC[C@H](C)[C@H](NC(=O)[C@H](C)NC(=O)[C@@H](NC(=O)[C@H](CCC(N)=O)NC(=O)[C@H](C)NC(=O)[C@H](CCCNC(=N)N)NC(=O)[C@@H](NC(=O)[C@H](CC(C)C)NC(=O)[C@H](CCC(=O)O)NC(=O)[C@H](CCCNC(=N)N)NC(=O)CNC(=O)[C@H](CO)NC(=O)[C@H](CC(C)C)NC(=O)[C@H](CCCCN)NC(=O)[C@@H](NC(=O)[C@@H](N)C(C)C)[C@@H](C)CC)C(C)C)[C@@H](C)CC)C(=O)N[C@@H](CO)C(=O)NCC(=O)N[C@@H](CCSC)C(=O)N[C@@H](CO)C(=O)N[C@H](C(=O)N[C@@H](Cc1c[nH]c2ccccc12)C(=O)N[C@@H](CO)C(=O)N[C@@H](CCCCN)C(=O)N[C@@H](CCCNC(=N)N)C(=O)N[C@@H](CO)C(=O)N[C@@H](CC(C)C)C(N)=O)[C@@H](C)O [B7-33 C11.23S] (H-VIKLSGRELVRAQIAISGMSTWSKRSL-NH2)
[1]
  Induction of MMP-2 expression: levels similar to those induced by the native H2 relaxin
[2]
  Induction of MMP-2 expression: levels similar to those induced by the native H2 relaxin
[3]
  Binding to RXFP1 (in words): binds RXFP1, but with lower affinity than H2 relaxin
